The target in experiment [1] is T1, μ-opioid receptor (Homo sapiens, UniProt P35372). As to the kind of experiment: μ-opioid receptor radioligand dose-displacement binding assay. How it is done: Radioligand dose-displacement binding assays for μ-opioid receptors used 0.3 nM [^3H]-diprenorphine (Perkin Elmer, Shelton, Conn.), with […] membrane protein/well in a final volume of […] binding buffer (10 mM MgCl2, 1 mM EDTA, 5% DMSO, 50 mM HEPES, pH 7.4). Reactions were carried out in the absence or presence of increasing concentrations of unlabeled naloxone. All reactions were conducted in 96-deep well polypropylene plates for 2 hr at room temperature. […] The data were analyzed using the one-site competition curve fitting functions in GraphPad PRISM™ v. 3.0 or higher (San Diego, Calif.), or an in-house function for one-site competition curve-fitting.
Target sequence in this assay (P35372 whole entry): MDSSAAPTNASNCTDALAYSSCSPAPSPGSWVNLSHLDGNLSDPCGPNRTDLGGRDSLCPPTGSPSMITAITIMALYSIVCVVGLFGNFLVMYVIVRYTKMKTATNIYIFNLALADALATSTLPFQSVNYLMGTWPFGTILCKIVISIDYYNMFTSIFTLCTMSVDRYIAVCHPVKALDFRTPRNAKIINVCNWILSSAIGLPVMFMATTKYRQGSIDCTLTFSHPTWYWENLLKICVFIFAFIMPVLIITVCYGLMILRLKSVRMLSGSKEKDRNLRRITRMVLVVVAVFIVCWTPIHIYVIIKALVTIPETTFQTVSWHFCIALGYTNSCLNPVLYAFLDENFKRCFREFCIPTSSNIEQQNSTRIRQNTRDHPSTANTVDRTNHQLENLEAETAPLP

Experiment [2] addresses T2, κ opioid receptor (Homo sapiens, UniProt P41145). As to the kind of experiment: κ-opioid receptor [35S]GTPγS functional assay. Also noted: expressed in transfected cells. The experiment is classed as biochemical. Conditions: for Emax: relative to the effect elicited by U69,593. How it is done:
(§1) Functional [^35S]GTPγS binding assays were conducted as follows. κ opioid receptor membrane solution was prepared by sequentially adding final concentrations of 0.026 μg/μl κ membrane protein (in-house), 10 μg/mL saponin, 3 μM GDP and 0.20 nM [^35S]GTPγS to binding buffer (100 mM NaCl, 10 mM MgCl2, 20 mM HEPES, pH 7.4) on ice. The prepared membrane solution (190 μl/well) was transferred to 96-shallow well polypropylene plates containing 10 μl of 20× concentrated stock solutions of agonist prepared in DMSO. Plates were incubated for 30 min at a temperature of about 25° C. with shaking.
κ GTP EC50 is the concentration of a compound providing 50% of the maximal response for the compound at a κ receptor.
κ GTP Emax (%) is the maximal effect elicited by a compound relative to the effect elicited by U69,593.
For orientation: GTPγS resists hydrolysis and so accumulates on activated G proteins.

In experiment [3] the target is T1, μ-opioid receptor. As to the kind of experiment: μ-opioid receptor [35S]GTPγS functional assay. The experiment is classed as biochemical. The arrangement: purchased Perkin Elmer, Shelton, Conn. Conditions: for Emax: relative to the effect elicited by DAMGO. How it is done: [^35S]GTPγS functional assays were conducted using freshly thawed μ-receptor membranes (Perkin Elmer, Shelton, Conn.). Assay reactions were prepared by sequentially adding the following reagents to binding buffer (100 mM NaCl, 10 mM MgCl2, 20 mM HEPES, pH 7.4) on ice (final concentrations indicated): membrane protein (0.026 mg/mL), saponin ([…]), GDP ([…]) and [^35S]GTPγS (0.20 nM; Perkin Elmer, Shelton, Conn.). The prepared membrane solution (190 μl/well) was transferred to 96-shallow well polypropylene plates containing 10 μI of 20× concentrated stock solutions of the agonist [D-Ala^e, N-methyl-Phe^4 Gly-ol^5]-enkephalin (DAMGO) prepared in dimethyl sulfoxide (DMSO). Plates were incubated for 30 min at about 25° C. with shaking. […] Data were analyzed using the sigmoidal dose-response curve fitting functions in GraphPad PRISM v. 3.0, or an in-house function for non-linear, sigmoidal dose-response curve-fitting.
μ GTP EC50 is the concentration of a compound providing 50% of the maximal response for the compound at a μ-opioid receptor.
μ GTP Emax (%) is the maximal effect elicited by a compound relative to the effect elicited by DAMGO, a standard μ agonist. Generally, the μ GTP Emax (%) value measures the efficacy of a compound to treat or prevent pain or other Conditions.
Target sequence in this assay (P35372 whole entry, species assumed): as the sequence (P35372 whole entry) above

Experiment [4] addresses T3, δ opioid receptor (Homo sapiens, UniProt P41143). As to the kind of experiment: δ-opioid receptor [35S]GTPγS functional assay. The experiment is classed as biochemical. The arrangement: purchased Perkin Elmer, Shelton, Conn. To be noted: for Emax: relative to the effect elicited by met-enkephalin; for EC50: δ membrane protein. The procedure:
as §1, with “δ” for “κ”, “(Perkin Elmer, Shelton, Conn.),” for “(in-house),”, “[…]” for “10 μl”
δ GTP EC50 is the concentration of a compound providing 50% of the maximal response for the compound at a δ receptor.
δ GTP Emax (%) is the maximal effect elicited by a compound relative to the effect elicited by met-enkephalin. […] In another embodiment, the Compounds of the Invention will have a δ GTP Emax (%) of about 100% or greater.

For experiment [5], the target named is T2, κ opioid receptor. As to the kind of experiment: κ-opioid receptor radioligand dose displacement binding assay. Also noted: expressed in transfected cells; host or cells: HEK-293. How it is done: Membranes from recombinant HEK-293 cells expressing the human κ opioid receptor (κ) (cloned in house) were prepared by lysing cells in ice cold hypotonic buffer (2.5 mM MgCl2, 50 mM HEPES, pH 7.4) (10 mL/10 cm dish) followed by homogenization with a tissue grinder/Teflon pestle. Membranes were collected by centrifugation at 30,000×g for 15 min at 4° C. and pellets were resuspended in hypotonic buffer to a final concentration of 1-3 mg/mL. Protein concentrations were determined using the BioRad protein assay reagent with bovine serum albumen as standard. Aliquots of κ receptor membranes were stored at […]

Experiment [6] deals with T3, δ opioid receptor. As to the kind of experiment: δ-opioid receptor radioligand dose-displacement binding assay.
Experimental: δ-opioid Receptor Binding Assay Procedures were conducted as follows. Radioligand dose-displacement assays used 0.3 nM [^3H]-Naltrindole (Perkin Elmer, Shelton, Conn.; 33.0 Ci/mmole) with 5 μg membrane protein (Perkin Elmer, Shelton, Conn.) in a final volume of 500 μl binding buffer (5 mM MgCl2, 5% DMSO, 50 mM Trizma base, pH 7.4). Non-specific binding was determined in the presence of 25 μM unlabeled naloxone. All reactions were performed in 96-deep well polypropylene plates for 1 hr at a temperature of about 25° C. Binding reactions were terminated by rapid filtration onto 96-well Unifilter GF/C filter plates (Perkin Elmer, Shelton, Conn.) presoaked in 0.5% polyethylenimine (Sigma). Harvesting was performed using a 96-well tissue harvester (Perkin Elmer, Shelton, Conn.) followed by five filtration washes with 500 μl ice-cold binding buffer. Filter plates were subsequently dried at 50° C. for 1-2 hours. Fifty μl/well scintillation cocktail (Perkin Elmer, Shelton, Conn.) was added and plates were counted in a Packard Top-Count for 1 min/well.
In experiment [7] the target is T4, human opioid receptor-like receptor (ORL-1) (Homo sapiens, UniProt P41146).
T4 construct: host or cells: HEK-293
As to the kind of experiment: ORL-1 receptor radioligand binding assay. How it is done: Membranes from recombinant HEK-293 cells expressing the human opioid receptor-like receptor (ORL-1) (Perkin Elmer, Shelton, Conn.) were prepared by lysing cells in ice-cold hypotonic buffer (2.5 mM MgCl2, 50 mM HEPES, pH 7.4) (10 ml/10 cm dish) followed by homogenization with a tissue grinder/Teflon pestle. Membranes were collected by centrifugation at 30,000×g for 15 min at 4° C. and pellets resuspended in hypotonic buffer to a final concentration of 1-3 mg/ml. Protein concentrations were determined using the BioRad protein assay reagent with bovine serum albumen as standard. Aliquots of the ORL-1 receptor membranes were stored at −80° C.
The data from screening and dose-displacement experiments were analyzed using Microsoft Excel and the curve fitting functions in GraphPad PRISM™, v. 3.0 or higher, respectively, or an in-house function for one-site competition curve-fitting.

Setting [8] is: [3H]-diprenorphine displacement, read-out: Ki (nM) Opioid Receptor μ.
Where [9] appears, read: κ membrane protein (in-house), read-out: GTPγS κ EC50.
Setting [10] is: μ-receptor membranes, read-out: GTPγS μ EC50.
The mark [11] stands for this setting: [3H]-U69,593 displacement, HEK-293 membranes, read-out: Ki (nM) Opioid Receptor κ.
Where [12] appears, read: [3H]-nociceptin displacement, HEK-293 membranes, read-out: Ki (nM) ORL-1.

Where two headings read alike, the source gives them in different places.

As a reminder, the Ki is a dissociation constant, usually derived from enzyme kinetics or from competition with a known ligand. One may read the Emax as the greatest response seen or fitted, relative to the assay's reference. What is called EC50 is the concentration at which the effect is half-maximal.

T3 sequence (P41143 whole entry): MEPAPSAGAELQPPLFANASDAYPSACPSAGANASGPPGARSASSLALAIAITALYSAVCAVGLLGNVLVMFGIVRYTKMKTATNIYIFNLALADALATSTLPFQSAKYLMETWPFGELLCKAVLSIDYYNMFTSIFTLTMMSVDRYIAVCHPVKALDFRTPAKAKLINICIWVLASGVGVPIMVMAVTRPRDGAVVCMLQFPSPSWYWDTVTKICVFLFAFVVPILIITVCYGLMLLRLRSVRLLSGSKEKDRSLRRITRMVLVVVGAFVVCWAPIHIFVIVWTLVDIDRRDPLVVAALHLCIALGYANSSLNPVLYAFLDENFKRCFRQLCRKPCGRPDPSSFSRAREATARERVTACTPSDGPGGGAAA
T4 sequence (P41146 whole entry): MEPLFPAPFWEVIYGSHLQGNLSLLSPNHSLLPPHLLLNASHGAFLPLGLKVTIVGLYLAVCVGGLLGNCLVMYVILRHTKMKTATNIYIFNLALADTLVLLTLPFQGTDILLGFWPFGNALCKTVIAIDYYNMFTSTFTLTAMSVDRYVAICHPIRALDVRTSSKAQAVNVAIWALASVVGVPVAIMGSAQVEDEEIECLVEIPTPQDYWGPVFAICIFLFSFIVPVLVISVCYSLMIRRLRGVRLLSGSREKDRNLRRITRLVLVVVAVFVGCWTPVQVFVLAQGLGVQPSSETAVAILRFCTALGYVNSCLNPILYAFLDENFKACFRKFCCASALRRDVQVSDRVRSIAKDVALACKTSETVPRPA
T2 sequence (P41145 whole entry): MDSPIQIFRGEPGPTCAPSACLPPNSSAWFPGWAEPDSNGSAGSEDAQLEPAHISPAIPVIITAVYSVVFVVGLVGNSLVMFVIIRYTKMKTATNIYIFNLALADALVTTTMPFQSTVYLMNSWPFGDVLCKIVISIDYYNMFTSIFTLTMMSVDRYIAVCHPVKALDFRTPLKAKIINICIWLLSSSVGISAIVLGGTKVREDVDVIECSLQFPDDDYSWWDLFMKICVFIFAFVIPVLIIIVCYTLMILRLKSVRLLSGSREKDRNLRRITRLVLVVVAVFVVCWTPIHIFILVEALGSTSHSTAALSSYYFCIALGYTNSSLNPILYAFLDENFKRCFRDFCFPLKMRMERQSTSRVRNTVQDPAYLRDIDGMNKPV

As to `COc1ccc2c(c1)[C@@]1(CCCc3ccco3)CCN(CC3CC3)C(C2)C1C` (stereo in doubt) [Compound 15, (2R,6S,11S)-3-(cyclopropylmethyl)-6-(3-(furan-2-yl)propyl)-8-methoxy-11-methyl-1,2,3,4,5,6-hexahydro-2,6-methanobenzo[d]azocine], the Ki on μ-opioid receptor [1] (setting [8]) amounted to 389 ± 90.2 nM; on κ opioid receptor [5] (setting [11]), 2.11 ± 0.22 nM; at δ opioid receptor [6], 736 ± 196 nM. Also, the maximal response (Emax) on κ opioid receptor [2] came to 82.3%; on μ-opioid receptor [3] it was 34.6%; at δ opioid receptor [4] it was 67%. The values for the half-maximal effective concentration (EC50) on κ opioid receptor [2] (setting [9]), at μ-opioid receptor [3] (setting [10]) and on δ opioid receptor [4] were 104 nM, 303 nM and 143 nM, respectively.
On to `CC(C)CN1CC[C@@]2(CCCC(N)=O)c3cc(O)ccc3C[C@@H]1[C@@H]2C` [Compound 18, 4-((2R,6R,11R)-8-hydroxy-3-isobutyl-11-methyl-1,2,3,4,5,6-hexahydro-2,6-methanobenzo[d]azocin-6-yl)butanamide], for which the Ki on μ-opioid receptor [1] (setting [8]) turned out to be 19.8 ± 0.68 nM; at κ opioid receptor [5] (setting [11]), 0.51 ± 0.05 nM; at δ opioid receptor [6] it was 155 ± 44.7 nM. The Emax came out at 43% at κ opioid receptor [2], 25.3% at μ-opioid receptor [3] and 74.3% at δ opioid receptor [4]. In addition, the half-maximal effective concentration (EC50) was found to be 7.14 nM on κ opioid receptor [2] (setting [9]), 9.12 nM on μ-opioid receptor [3] (setting [10]) and 81 nM on δ opioid receptor [4].
Regarding `C[C@H]1[C@H]2Cc3ccc(O)cc3[C@]1(CCOc1cncc(C(=O)O)c1)CCN2CC1CC1` [Compound 16, 5-(2-((2R,6S,11R)-3-(cyclopropylmethyl)-8-hydroxy-11-methyl-1,2,3,4,5,6-hexahydro-2,6-methanobenzo[d]azocin-6-yl)ethoxy)nicotinic acid], the Ki on μ-opioid receptor [1] (setting [8]) worked out at 6.85 ± 1.48 nM; on κ opioid receptor [5] (setting [11]), 12.6 ± 2.11 nM; on δ opioid receptor [6], 62.5 ± 11 nM. In addition, the maximum response (Emax) worked out at 60.7% at κ opioid receptor [2], 26% at μ-opioid receptor [3] and 37.8% on δ opioid receptor [4]. The EC50 came to 67.9 nM at κ opioid receptor [2] (setting [9]), 8.95 nM on μ-opioid receptor [3] (setting [10]) and 2.48 nM at δ opioid receptor [4].
As to `COC(=O)[C@H](C)NC(=O)CCC[C@]12CCN(CC3CC3)[C@H](Cc3ccc(O)cc31)[C@@H]2C` [Compound 21, (S)-methyl 2-(4-((2R,6R,11R)-3-(cyclopropylmethyl)-8-hydroxy-11-methyl-1,2,3,4,5,6-hexahydro-2,6-methanobenzo[d]azocin-6-yl)butanamido)propanoate], the inhibitory constant (Ki) turned out to be 2430 ± 718 nM in experiment [7] (setting [12]), 5.05 ± 1.34 nM on μ-opioid receptor [1] (setting [8]), 0.13 ± 0.02 nM at κ opioid receptor [5] (setting [11]) and 8.81 ± 0.71 nM at δ opioid receptor [6]. The maximal response (Emax) was 67.5% on κ opioid receptor [2] and 36.7% at μ-opioid receptor [3]. In addition, the EC50 at κ opioid receptor [2] (setting [9]) worked out at 9.72 nM; at μ-opioid receptor [3] (setting [10]), 5.45 nM.
Turning to `COc1ccc2c(c1)[C@@]1(CCC[C@H](O)CO)CCN(CC3CC3)C(C2)[C@@H]1C` [Compound 11, (2S)-5-((6S,11R)-3-(cyclopropylmethyl)-8-methoxy-11-methyl-1,2,3,4,5,6-hexahydro-2,6-methanobenzo[d]azocin-6-yl)pentane-1,2-diol], the inhibitory constant (Ki) in experiment [7] was 13100 ± 1060 nM; at μ-opioid receptor [1] it was 235 ± 17.3 nM; on κ opioid receptor [5] it was 3.23 ± 0.5 nM; on δ opioid receptor [6], 4980 ± 456 nM. Also, the concentration giving a half-maximal response (EC50) at κ opioid receptor [2] was 210 nM; at μ-opioid receptor [3], above 20000 nM. Also, on κ opioid receptor [2], the Emax was 81%.
With `COC(=O)CCC[C@]12CCN(CC3CC3)[C@H](Cc3ccc(O)cc31)[C@@H]2C` [Compound 23, methyl 4-((2R,6R,11R)-3-(cyclopropylmethyl)-8-hydroxy-11-methyl-1,2,3,4,5,6-hexahydro-2,6-methanobenzo[d]azocin-6-yl)butanoate], the Ki in experiment [7] (setting [12]) was determined as 2240 ± 285 nM; on μ-opioid receptor [1] (setting [8]) it was 1.16 ± 0.36 nM; on κ opioid receptor [5] (setting [11]), 0.07 ± 0.01 nM; on δ opioid receptor [6] it was 32.6 ± 2.97 nM. Further, the Emax at κ opioid receptor [2] worked out at 57%; at μ-opioid receptor [3], 18%. Besides, the EC50 came to 5.19 nM on κ opioid receptor [2] (setting [9]) and 2.33 nM at μ-opioid receptor [3] (setting [10]).
